Results on 18 molecules are retold here after patent US12433953B2, “Compositions and methods related to tumor activated antibodies targeting EGFR and effector cell antigens” (Janux Therapeutics, Inc., priority 2021, dated 2025).

Read-outs that look alike come from different tables or passages of the source.

The target in data set [1] is EGFR Fab binding to the EGFR antigen. Kind of data set: ELISA competitive inhibition of EGFR Fab binding to EGFR antigen.
A further data set addresses EGFR Fab. As to the kind of experiment: ELISA binding of peptides to EGFR Fab. Particulars: for EC50: read-out: EC50 for peptide binding to αEGFR Fab; for binding affinity for EGFR Fab (in words): among peptides of Table 14.
[2] abbreviates: read-out: IC50 for peptide inhibition of αEGFR Fab binding to EGFR antigen, Table 17.
The mark [3] stands for this setting: read-out: IC50 for peptide inhibition of αEGFR Fab binding to EGFR antigen, Table 18.
[4] abbreviates: Table 21, peptide-8 alanine scanning mutants, read-out: IC50.
[5] abbreviates: read-out: IC50 for peptide inhibition of αEGFR Fab binding to EGFR antigen, Table 27, peptide-8 optimization.
[6] abbreviates: Table 25, peptide-8 optimization.

In the case of `CC(C)C[C@H](NC(=O)[C@@H]1CSSC[C@H](NC(=O)[C@@H](N)Cc2c[nH]c3ccccc23)C(=O)N[C@@H]([C@@H](C)O)C(=O)N[C@@H](C(C)C)C(=O)N[C@@H](Cc2c[nH]c3ccccc23)C(=O)NCC(=O)N[C@@H](CC(=O)O)C(=O)N[C@@H](CCCNC(=N)N)C(=O)N[C@@H](CCC(N)=O)C(=O)N[C@@H](CCC(=O)O)C(=O)N[C@@H](C(C)C)C(=O)N[C@@H](CCCNC(=N)N)C(=O)N1)C(=O)O` [Peptide-7], the IC50 in data set [1] (setting [2]) was > 300 nM. For the same molecule, the EC50 on EGFR Fab (Table 15) is > 1000 nM.

Turning to `CC[C@H](C)[C@@H]1NC(=O)[C@H](Cc2c[nH]cn2)NC(=O)[C@H](CO)NC(=O)[C@H](CCCNC(=N)N)NC(=O)[C@@H](NC(=O)[C@@H]2CCCN2)CSSC[C@@H](C(=O)N[C@H](C(=O)O)C(C)C)NC(=O)[C@H]([C@@H](C)CC)NC(=O)[C@@H]2CCCN2C(=O)[C@H](CCCCN)NC(=O)[C@H](C)NC(=O)[C@H](C(C)C)NC(=O)[C@H](CC(=O)O)NC1=O` [Peptide-8], the “inhibiting EGFR Fab binding to the EGFR antigen (in words)” value in data set [1] (among peptides of Table 14) is reported as “most effective at inhibiting EGFR Fab binding to the EGFR antigen”. Besides, the “binding affinity for EGFR Fab (in words)” value in the data set with EGFR Fab is listed as “strongest binding affinities (lowest EC50s)”. In addition, the concentration for a half-maximal effect (EC50) on EGFR Fab (Table 15) was 8 nM; at EGFR Fab (Table 24, peptide-8 optimization), 700 nM.

On to `CSCC[C@@H]1NC(=O)[C@H](Cc2c[nH]c3ccccc23)NC(=O)[C@H](Cc2ccc(O)cc2)NC(=O)[C@H](Cc2c[nH]cn2)NC(=O)[C@H](C(C)C)NC(=O)[C@@H](NC(=O)[C@@H](NC(=O)[C@@H](N)CO)[C@@H](C)O)CSSC[C@@H](C(=O)N[C@H](C(=O)O)C(C)C)NC(=O)[C@H](CO)NC(=O)[C@H](CCCNC(=N)N)NC(=O)[C@H](CC(C)C)NC(=O)[C@H](CCC(N)=O)NC1=O` [Peptide-9], for which, in data set [1] (setting [2]), the half-inhibitory concentration (IC50) is > 300 nM. Besides, the EC50 at EGFR Fab (Table 15) is > 1000 nM.

Regarding `CSCC[C@@H]1NC(=O)[C@H](C(C)C)NC(=O)[C@H](Cc2c[nH]c3ccccc23)NC(=O)[C@H](Cc2c[nH]cn2)NC(=O)[C@H](C)NC(=O)[C@@H](NC(=O)CNC(=O)CN)CSSC[C@@H](C(=O)N[C@@H](CCC(N)=O)C(=O)O)NC(=O)[C@H](Cc2c[nH]c3ccccc23)NC(=O)[C@H](CO)NC(=O)[C@H](CC(C)C)NC(=O)[C@H](CCCNC(=N)N)NC1=O` [Peptide-10], the IC50 in data set [1] (setting [2]) was > 300 nM. In addition, the EC50 at EGFR Fab (Table 15) is > 1000 nM.

As for `CSCC[C@@H]1NC(=O)[C@H](CC(C)C)NC(=O)[C@H](Cc2ccccc2)NC(=O)[C@H](Cc2c[nH]cn2)NC(=O)[C@H](CCC(N)=O)NC(=O)[C@@H](NC(=O)CNC(=O)[C@@H](N)CC(C)C)CSSC[C@@H](C(=O)NCC(=O)O)NC(=O)[C@H]([C@@H](C)O)NC(=O)[C@H](C)NC(=O)[C@H](CC(C)C)NC(=O)[C@H](CCCCN)NC1=O` [Peptide-11], the IC50 in data set [1] (setting [2]) is > 300 nM. In addition, the EC50 at EGFR Fab (Table 15) was 42 nM.

Regarding `CSCC[C@@H]1NC(=O)[C@H](CCCNC(=N)N)NC(=O)[C@H](C(C)C)NC(=O)[C@H](CCSC)NC(=O)[C@H](CCCNC(=N)N)NC(=O)[C@H](Cc2c[nH]cn2)NC(=O)[C@H](CC(C)C)NC(=O)CNC(=O)[C@H](CC(=O)O)NC(=O)CNC(=O)[C@@H](NC(=O)CN)CSSC[C@@H](C(=O)O)NC(=O)[C@H](Cc2c[nH]c3ccccc23)NC1=O` [Peptide-12], in data set [1] (setting [2]), the IC50 is > 300 nM. Also, at EGFR Fab (Table 15), the EC50 is > 1000 nM.

For `CSCC[C@@H]1NC(=O)[C@H](C(C)C)NC(=O)[C@H]([C@@H](C)O)NC(=O)[C@@H](NC(=O)[C@H](C)N)CSSC[C@@H](C(=O)N[C@H](C(=O)O)C(C)C)NC(=O)[C@H](CCCNC(=N)N)NC(=O)[C@H](C(C)C)NC(=O)[C@H](CCC(=O)O)NC(=O)[C@H](CCC(N)=O)NC(=O)[C@H](CCCNC(=N)N)NC(=O)[C@H](C)NC(=O)CNC1=O` [Peptide-13], the IC50 in data set [1] (setting [3]) was > 300 nM. On EGFR Fab (Table 16), the EC50 is > 1000 nM.

As to `CC[C@H](C)[C@@H]1NC(=O)[C@H](CC(C)C)NC(=O)[C@H](C)NC(=O)[C@@H]2CCCN2C(=O)[C@@H](NC(=O)[C@@H]2CCCN2)CSSC[C@@H](C(=O)N[C@H](C(=O)O)C(C)C)NC(=O)[C@H]([C@@H](C)CC)NC(=O)[C@H](C(C)C)NC(=O)[C@H](CCC(=O)O)NC(=O)[C@H](C)NC(=O)[C@H](C(C)C)NC(=O)[C@H](CC(=O)O)NC1=O` [Peptide-14], in data set [1] (setting [3]), the IC50 was > 300 nM. The EC50 at EGFR Fab (Table 16) is > 1000 nM.

Take `CC(C)C[C@@H]1NC(=O)[C@H](CCC(N)=O)NC(=O)CNC(=O)[C@H](CCCNC(=N)N)NC(=O)[C@H](CCC(N)=O)NC(=O)[C@H](Cc2c[nH]c3ccccc23)NC(=O)[C@H](C(C)C)NC(=O)[C@H](CO)NC(=O)[C@H](CC(N)=O)NC(=O)[C@@H](NC(=O)[C@@H](N)Cc2ccc(O)cc2)CSSC[C@@H](C(=O)O)NC(=O)[C@H](Cc2c[nH]c3ccccc23)NC(=O)[C@H](Cc2ccc(O)cc2)NC1=O` [Peptide-15]: in data set [1] (setting [3]), the IC50 was > 300 nM. The “binding affinity for EGFR Fab (in words)” value in the data set with EGFR Fab is on record as “strongest binding affinities (lowest EC50s)”. For the same molecule, the EC50 at EGFR Fab (Table 16) was 7 nM.

Turning to `CSCC[C@@H]1NC(=O)[C@H](Cc2c[nH]cn2)NC(=O)[C@H](CO)NC(=O)[C@@H](NC(=O)[C@@H](N)CCC(=O)O)CSSC[C@@H](C(=O)N[C@@H](CO)C(=O)O)NC(=O)[C@H](CC(C)C)NC(=O)[C@@H]2CCCN2C(=O)[C@H](Cc2c[nH]c3ccccc23)NC(=O)[C@H](CCCNC(=N)N)NC(=O)[C@H]([C@@H](C)O)NC(=O)CNC(=O)[C@H](CCC(=O)O)NC1=O` [Peptide-16], the IC50 in data set [1] (setting [3]) is > 300 nM. Further, on EGFR Fab (Table 16), the concentration for a half-maximal effect (EC50) turned out to be 34 nM.

Turning to `CC[C@H](C)[C@@H]1NC(=O)[C@H](C)NC(=O)[C@H](CCCCN)NC(=O)[C@H](C)NC(=O)[C@H](C(C)C)NC(=O)[C@H](CC(=O)O)NC(=O)[C@H]([C@@H](C)CC)NC(=O)[C@H](Cc2c[nH]cn2)NC(=O)[C@H](CO)NC(=O)[C@H](CCCNC(=N)N)NC(=O)[C@@H](NC(=O)[C@@H]2CCCN2)CSSC[C@@H](C(=O)N[C@H](C(=O)O)C(C)C)NC1=O` [Peptide-25], the IC50 in data set [1] (setting [4]) is > 100000 nM.

For `CC[C@H](C)[C@@H]1NC(=O)[C@H](Cc2c[nH]cn2)NC(=O)[C@H](CO)NC(=O)[C@H](CCCNC(=N)N)NC(=O)[C@@H](NC(=O)[C@@H]2CCCN2)CSSC[C@@H](C(=O)N[C@H](C(=O)O)C(C)C)NC(=O)[C@H](C)NC(=O)[C@@H]2CCCN2C(=O)[C@H](CCCCN)NC(=O)[C@H](C)NC(=O)[C@H](C(C)C)NC(=O)[C@H](CC(=O)O)NC1=O` [Peptide-26], the IC50 in data set [1] (setting [4]) is > 100000 nM.

For `CC[C@H](C)[C@@H]1NC(=O)[C@H](Cc2c[nH]cn2)NC(=O)[C@H](CO)NC(=O)[C@H](CCCNC(=N)N)NC(=O)[C@@H](NC(=O)[C@@H]2CCCN2)CSSC[C@@H](C(=O)N[C@@H](C)C(=O)O)NC(=O)[C@H]([C@@H](C)CC)NC(=O)[C@@H]2CCCN2C(=O)[C@H](CCCCN)NC(=O)[C@H](C)NC(=O)[C@H](C(C)C)NC(=O)[C@H](CC(=O)O)NC1=O` [Peptide-27], the “Fold shift in IC50 relative to Peptide-8 (IC50 Ala mutant/IC50 Peptide-8)” value in data set [1] (Table 21) turned out to be 2.2. Also, the IC50 in data set [1] (setting [4]) stood at 3100 nM.

Turning to `CC[C@H](C)[C@@H]1NC(=O)[C@@H]2CCCN2C(=O)[C@H](CCCCN)NC(=O)[C@H](C)NC(=O)[C@H]([C@@H](C)O)NC(=O)[C@H](CC(=O)O)NC(=O)[C@H](Cc2ccccc2)NC(=O)[C@H](Cc2c[nH]cn2)NC(=O)[C@H](CO)NC(=O)[C@H]([C@@H](C)O)NC(=O)[C@@H](NC(=O)[C@@H]2CCCN2)CSSC[C@@H](C(=O)N[C@@H](C)C(=O)O)NC1=O` [Peptide-39], the 50% inhibitory concentration (IC50) in data set [1] (setting [5]) stood at 2790 nM. On EGFR Fab (setting [6]), the EC50 was determined as 206 nM.

As for `CC[C@H](C)[C@@H]1NC(=O)[C@@H]2CCCN2C(=O)[C@H](CCCCN)NC(=O)[C@H](C)NC(=O)[C@@H]2CCCN2C(=O)[C@H](CC(=O)O)NC(=O)[C@H](CC(N)=O)NC(=O)[C@H](Cc2c[nH]cn2)NC(=O)[C@H](CO)NC(=O)[C@H](CC(C)C)NC(=O)[C@@H](NC(=O)[C@@H]2CCCN2)CSSC[C@@H](C(=O)N[C@@H](C)C(=O)O)NC1=O` [Peptide-41], in data set [1] (setting [5]), the IC50 worked out at 4250 nM. Besides, the EC50 at EGFR Fab (setting [6]) was determined as 292 nM.

With `CC[C@H](C)[C@@H]1NC(=O)[C@@H]2CCCN2C(=O)[C@H](CCCCN)NC(=O)[C@H](C)NC(=O)[C@H](CC(C)C)NC(=O)[C@H](CC(=O)O)NC(=O)[C@H](Cc2ccc(O)cc2)NC(=O)[C@H](Cc2c[nH]cn2)NC(=O)[C@H](CO)NC(=O)[C@H](CC(N)=O)NC(=O)[C@@H](NC(=O)[C@@H]2CCCN2)CSSC[C@@H](C(=O)N[C@H](C(=O)O)[C@@H](C)O)NC1=O` [Peptide-43], the IC50 in data set [1] (setting [5]) was 4230 nM. For the same molecule, the 50% effective concentration (EC50) on EGFR Fab (setting [6]) came out at 186 nM.

For `CC[C@H](C)[C@@H]1NC(=O)[C@H](CC(=O)O)NC(=O)[C@H](Cc2ccccc2)NC(=O)[C@H](Cc2c[nH]cn2)NC(=O)[C@H](CO)NC(=O)[C@H](CC(N)=O)NC(=O)[C@@H](NC(=O)[C@@H]2CCCN2)CSSC[C@@H](C(=O)N[C@@H](CC(C)C)C(=O)O)NC(=O)[C@H]([C@@H](C)CC)NC(=O)[C@@H]2CCCN2C(=O)[C@H](CCCCN)NC(=O)[C@H](C)NC1=O` [Peptide-44], the IC50 in data set [1] (setting [5]) turned out to be 6570 nM. Besides, the EC50 on EGFR Fab (setting [6]) turned out to be 341 nM.

Consider `CC[C@H](C)[C@@H]1NC(=O)[C@@H]2CCCN2C(=O)[C@H](CCCCN)NC(=O)[C@H](C)NC(=O)[C@@H]2CCCN2C(=O)[C@H](CC(=O)O)NC(=O)[C@H](CC(N)=O)NC(=O)[C@H](Cc2c[nH]cn2)NC(=O)[C@H](Cc2ccc(O)cc2)NC(=O)[C@H](C)NC(=O)[C@@H](NC(=O)[C@@H]2CCCN2)CSSC[C@@H](C(=O)N[C@@H](CO)C(=O)O)NC1=O` [Peptide-45, PCAYHNDPAKPICS], for which, in data set [1] (binding and inhibition data relative to peptide-8), the “potency as peptide mask (in words)” value was “more potent peptide masks”. Moreover, the concentration for half-maximal inhibition (IC50) in data set [1] (setting [5]) amounted to 543 nM. In addition, the EC50 on EGFR Fab (setting [6]) came to 10.3 nM.
